From patent US20240208986A1, “PHENYL AZEPINES AS RIPK1 INHIBITORS AND METHODS OF USE THEREOF” (Merck Sharp & Dohme LLC, priority 2021, published 2024) come the findings set out here.

Molecules are shown by their SMILES.

For this assay, the target named is RIPK1 (recombinant GST-RIPK1 kinase domain, residues 1-327) (Homo sapiens (Human), UniProt Q13546). Description: RIPK1-ADP-Glo Enzymatic Assay. Format: biochemical. The following applies: 25 nM GST-RIPK1, 300 μM ATP, 3 μM dephosphorylated-MBP; 30 minutes pre-incubation, 150 minutes reaction; ten-point titration. As to the method: The enzymatic activity of RIPK1 is measured using an assay derived from ADP-Glo kit (™Promega), which provides a luminescent-based ADP detection system. Specifically, the ADP generated by RIPK1 kinase is proportionally detected as luminescent signals in a homogenous fashion. In this context, the assessment of the inhibitory effect of small molecules (EC50) is measured by the effectiveness of the compounds to inhibit the ATP to ADP conversion by RIPK1.
In this assay, the potency (EC50) of each compound was determined from a ten-point (1:3 serial dilution; top compound concentration of 100000 nM) titration curve using the following outlined procedure. To each well of a white ProxiPlus 384 well-plate, 30 nL of compound (1% DMSO in final assay volume of 3 μL) was dispensed, followed by the addition of 2 μL of 1× assay buffer (25 mM Hepes 7.3, 20 mM MgCl2, 50 mM NaCl, 1 mM DTT, 0.005% Tween20, and 0.02% BSA) containing 37.5 nM of GST-RIPK1 (recombinant GST-RIPK1 kinase domain (residues 1-327) enzyme produced from baculovirus-transfected Sf21 cells: MW=62 kDa). Plates were placed in an ambient temperature humidified chamber for a 30 minutes pre-incubation with compound. Subsequently, each reaction was initiated by the addition of 1 μL 1× assay buffer containing 900 μM ATP and 3 μM dephosphorylated-MBP substrate. The final reaction in each well of 3 μL consists of 25 nM of GST-RIPK1, 300 μM ATP, and 3 μM dephosphorylated-MBP. Kinase reactions were allowed to proceed for 150 minutes prior to adding ADP-Glo reagents per Promega's outlined kit protocol. Dose-response curves were generated by plotting percent effect (% product conversion; Y-axis) vs. Log10 compound concentrations (X-axis). EC50 values were calculated using a non-linear regression, four-parameters sigmoidal dose-response model.
A general note: ADP-Glo first removes unused ATP, then detects ADP through luciferase.

RIPK1 (recombinant GST-RIPK1 kinase domain, residues 1-327), sequence (Q13546 1-327): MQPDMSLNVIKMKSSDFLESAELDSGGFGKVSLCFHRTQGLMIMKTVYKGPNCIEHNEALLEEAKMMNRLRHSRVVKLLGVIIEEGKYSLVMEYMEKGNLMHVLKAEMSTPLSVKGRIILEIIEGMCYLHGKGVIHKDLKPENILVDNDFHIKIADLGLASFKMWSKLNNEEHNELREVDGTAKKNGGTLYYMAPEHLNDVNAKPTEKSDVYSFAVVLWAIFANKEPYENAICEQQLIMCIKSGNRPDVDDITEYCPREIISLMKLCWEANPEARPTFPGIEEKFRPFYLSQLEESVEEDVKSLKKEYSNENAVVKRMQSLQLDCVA

`O=C(N1C[C@@H]2C[C@H]1c1ccccc1O2)C12CC3CC(CC(C3)C1)C2` [Compound 1-23, [(2S,5S)-2,3-dihydro-2,5-methano-1,4-benzoxazepin-4(5H)-yl][(3R,5R,7R)-tricyclo[3.3.1.1~3,7~]decan-1-yl]methanone]: the concentration for half-maximal inhibition (IC50) turned out to be 234 nM. For `CC(C(=O)N1C[C@@H]2C[C@H]1c1ccccc1O2)(C(F)(F)F)C(F)(F)F` [Compound 1-24, 1-[(2S,5S)-2,3-dihydro-2,5-methano-1,4-benzoxazepin-4(5H)-yl]-3,3,3-trifluoro-2-methyl-2-(trifluoromethyl)propan-1-one], the IC50 came to 69 nM.

In the case of `CN(C)C1(C(=O)N2C[C@@H]3C[C@H]2c2ccccc2O3)CCC1` [Compound 1-25, [(2S,5S)-2,3-dihydro-2,5-methano-1,4-benzoxazepin-4(5H)-yl][1-(dimethylamino)cyclobutyl] methanone], the IC50 amounted to 140 nM. Under `O=C(N1C[C@@H]2C[C@H]1c1ccccc1O2)C1(C(F)(F)F)CCCC1` [Compound 1-26, [(2S,5S)-2,3-dihydro-2,5-methano-1,4-benzoxazepin-4(5H)-yl][1-(trifluoromethyl)cyclopentyl]methanone] stands 60 nM.

Regarding `CC(C)(C(=O)N1C[C@@H]2C[C@H]1c1ccccc1O2)C1CC1` [Compound 1-28, 2-cyclopropyl-1-[(2S,5S)-2,3-dihydro-2,5-methano-1,4-benzoxazepin-4(5H)-yl]-2-methylpropan-1-one], the IC50 was found to be 22 nM. Turning to `O=C(N1C[C@@H]2C[C@H]1c1ccccc1O2)C1(C(F)F)CCC1` [Compound 1-29, [1-(difluoromethyl)cyclobutyl] [(2S,5S)-2,3-dihydro-2,5-methano-1,4-benzoxazepin-4(5H)-yl]methanone], the IC50 came to 58 nM. Under `N#CC1(C(=O)N2C[C@@H]3C[C@H]2c2ccccc2O3)CCC1` [Compound 1-30, 1-[(2S,5S)-2,3-dihydro-2,5-methano-1,4-benzoxazepine-4(5H)-carbonyl]cyclobutane-1-carbonitrile] stands 76 nM; under `CC1(C(=O)N2C[C@@H]3C[C@H]2c2ccccc2O3)CC(F)(F)C1` [Compound 1-31, (3,3-difluoro-1-methylcyclobutyl)[(2S,5S)-2,3-dihydro-2,5-methano-1,4-benzoxazepin-4(5H)-yl]methanone], 157 nM.

For `CC(CF)(CF)C(=O)N1C[C@@H]2C[C@H]1c1ccccc1O2` [Compound 1-33, 1-[(2S,5S)-2,3-dihydro-2,5-methano-1,4-benzoxazepin-4(5H)-yl]-3-fluoro-2-(fluoromethyl)-2-methylpropan-1-one], the IC50 was 881 nM.

For `N#Cc1cc(N2CCC(C(=O)N3C[C@@H]4C[C@H]3c3ccccc3O4)CC2)ncn1` [Compound 1-36, 6-{4-[(2S,5S)-2,3-dihydro-2,5-methano-1,4-benzoxazepine-4(5H)-carbonyl]piperidin-1-yl}pyrimidine-4-carbonitrile], the IC50 turned out to be 327 nM. Then `O=C(C1CCN(c2ncnc3scnc23)CC1)N1C[C@@H]2C[C@H]1c1ccccc1O2` [Compound 1-37, [(2S,5S)-2,3-dihydro-2,5-methano-1,4-benzoxazepin-4(5H)-yl][1-([1,3]thiazolo[5,4-d]pyrimidin-7-yl)piperidin-4-yl]methanone], with 124 nM.

Consider `O=C(N1C[C@@H]2C[C@H]1c1ccccc1O2)C12CC(C1)C2` [Compound 1-38, (bicyclo[1.1.1]pentan-1-yl)[(2S,5S)-2,3-dihydro-2,5-methano-1,4-benzoxazepin-4(5H)-yl]methanone], for which the IC50 came to 146 nM.

Turning to `O=C(C1CCN(c2nccn3ncnc23)CC1)N1C[C@@H]2C[C@H]1c1ccccc1O2` [Compound 1-39, [(2S,5S)-2,3-dihydro-2,5-methano-1,4-benzoxazepin-4(5H)-yl][1-([1,2,4]triazolo[1,5-a]pyrazin-8-yl)piperidin-4-yl]methanone], the IC50 amounted to 213 nM.

Take `O=C(N1C[C@@H]2C[C@H]1c1ccccc1O2)C12CCC(F)(CC1)C2` [Compound 1-40, ((2S,5S)-2,3-dihydro-2,5-methanobenzo[f][1,4]oxaze-pin-4(5H)-yl)(4-fluorobicyclo[2.2.1]heptan-1-yl)methanone]: the IC50 was found to be 23 nM. As for `O=C(N1C[C@@H]2C[C@H]1c1ccccc1O2)C12CCC(C(F)F)(CC1)C2` [Compound 1-41, (4-(difluoromethyl)bicyclo [2.2.1]heptan-1-yl)((2S,5S)-2,3-dihydro-2,5-methanobenzo[f][1,4]oxaze-pin-4(5H)-yl)methanone], the IC50 is 13 nM.

As for `CC12CC(C(=O)N3C[C@@H]4C[C@H]3c3ccccc3O4)(CO1)C2` [Compound 1-42, [(2S,5S)-2,3-dihydro-2,5-methano-1,4-benzoxazepin-4(5H)-yl](1-methyl-2-oxabicyclo[2.1.1]hexan-4-yl)methanone], the IC50 is 922 nM.

With `O=C(N1C[C@@H]2C[C@H]1c1ccccc1O2)C12CCC(CC1)CC2` [Compound 1-43, (bicyclo[2.2.2]octan-1-yl)[(2S,5S)-2,3-dihydro-2,5-methano-1,4-benzoxazepin-4(5H)-yl]methanone], the concentration for half-maximal inhibition (IC50) was determined as 18 nM. In the case of `O=C(N1C[C@@H]2C[C@H]1c1ccccc1O2)C12CCC(C(F)(F)F)(CC1)C2` [Compound 1-44, [(2S,5S)-2,3-dihydro-2,5-methano-1,4-benzoxazepin-4(5H)-yl][4-(trifluoromethyl)bicyclo [2.2.1]heptan-1-yl]methanone], the half-maximal inhibitory concentration (IC50) stood at 17 nM. As for `CC1(C)C2CCC1(C(=O)N1C[C@@H]3C[C@H]1c1ccccc1O3)CC2` [Compound 1-45, [(2S,5S)-2,3-dihydro-2,5-methano-1,4-benzoxazepin-4(5H)-yl](7,7-dimethylbicyclo[2.2.1]heptan-1-yl)methanone], the IC50 came out at 168 nM. Under `COC12CCC(C(=O)N3C[C@@H]4C[C@H]3c3ccccc3O4)(CC1)C2` [Compound 1-46, [(2S,5S)-2,3-dihydro-2,5-methano-1,4-benzoxazepin-4(5H)-yl](4-methoxybicyclo[2.2.1]heptan-1-yl)methanone] stands 117 nM; under `N#CC12CCC(C(=O)N3C[C@@H]4C[C@H]3c3ccccc3O4)(CC1)CC2` [Compound 1-47, 4-[(2S,5S)-2,3-dihydro-2,5-methano-1,4-benzoxazepine-4(5H)-carbonyl]bicyclo[2.2.2] octane-1-carbonitrile], 281 nM; under `CC1(C(=O)N2C[C@@H]3C[C@H]2c2ccccc2O3)CCN(c2cc(C#N)ncn2)CC1` [Compound 1-48, 6-{4-[(2S,5S)-2,3-dihydro-2,5-methano-1,4-benzoxazepine-4(5H)-carbonyl]-4-methylpiperidin-1-yl}pyrimidine-4-carbonitrile], 375 nM.

As for `N#Cc1cc(N2CCC(F)(C(=O)N3C[C@@H]4C[C@H]3c3ccccc3O4)CC2)ncn1` [Compound 1-49, 6-{4-[(2S,5S)-2,3-dihydro-2,5-methano-1,4-benzoxazepine-4(5H)-carbonyl]-4-fluoropiperidin-1-yl}pyrimidine-4-carbonitrile], the IC50 came out at 117 nM.

As to `O=C(N1C[C@@H]2C[C@H]1c1ccccc1O2)C12CCC(c3ccccc3)(CC1)CC2` [Compound 1-51, [(2S,5S)-2,3-dihydro-2,5-methano-1,4-benzoxazepin-4(5H)-yl](4-phenylbicyclo[2.2.2]octan-1-yl)methanone], the IC50 stood at 723 nM.

For orientation: IC50 means the concentration that gives 50% inhibition.
